Measured values from patent US10632125B2, “MTH1 inhibitors for treatment of inflammatory and autoimmune conditions” (THOMAS HELLEDAYS STIFTELSE FÖR MEDICINSK FORSKNING, priority 2014, dated 2020).

Target: MTH1 (Homo sapiens, UniProt P36639)
Experiment: MTH1 enzymatic assay (malachite green, coupled to pyrophosphatase)
Assay type: biochemical
Details: dGTP 100 μM, MTH1 6 nM; 96- or 384-well format; read-out: IC50
Description: MTH1 catalyzes the hydrolysis of dGTP to dGMP and PPi. By coupling the reaction to pyrophosphatase added in excess PPi is converted to Pi that can be detected by using the malachite green assay reagent. […] 96-well method: Briefly, the compound to be analyzed is diluted in DMSO in a 1:3 dilution series generating 12 different compound concentrations giving a final DMSO concentration of 1% in the assay well. MTH1 diluted in assay buffer (100 mM Tris-acetate, 40 mM NaCl, 10 mM magnesium acetate, 1 mM DTT and 0.005% Tween 20) fortified with E. coli pyrophosphatase (0.2 U/ml) is added to a final concentration of 6 nM. dGTP diluted in assay buffer is added to a final concentration of 100 μM. The reaction mixture is incubated for 15 minutes at 22° C. To 100 μl reaction mixture, 25 μl Malachite green assay regent (0.095% Malachite green in 17% H2SO4, 1.5% Ammonium molybdate, 0.17% Tween 20) is added, followed by incubation with shaking for 15 minutes at 22° C. The absorbance of the assay plate is read at 630 nm using a Hidex Sense Multilabel plate reader. The IC50 value is determined by fitting a dose response curve to the data points using nonlinear regression analysis and the equation Y=Bottom+(Top-Bottom)/(1+10^((Log IC50−X)*HillSlope)), where Y is the read absorbance at 630 nm and X is log [compound].
384-Well Method: The compounds to be tested are nano-dispensed, in 11 concentrations, directly in assay plates, with a final DMSO concentration <1%. The protocol and the reaction mixture are the same as for the 96-well assay, with a total reaction volume of 50 μl/well to which 10 μl of Malachite green reagent is added. All additions to the assay plates are made with multidrop.

Cc1cccc(-c2cc(NC3CCCC3)nc(N)n2)c1C [Example 153, 4-N-cyclopentyl-6-(2,3-dimethylphenyl)pyrimidine-2,4-diamine]
IC50: < 200 nM

CNc1cc(-c2cn(S(=O)(=O)c3ccc(C(F)(F)F)cc3)c3ccccc23)nc(N)n1 [Example 155, 4-N-methyl-6-{1-[4-(trifluoromethyl)benzenesulfonyl]-1H-indol-3-yl}pyrimidine-2,4-diamine]
IC50: < 200 nM

Cc1cccc(-c2cc(NC3CCCCC3)nc(N)n2)c1C [Example 156, 4-N-cyclohexyl-6-(2,3-dimethylphenyl)pyrimidine-2,4-diamine]
IC50: < 200 nM

CCNc1cc(-c2cccc(C)c2C)nc(N)n1 [Example 158, 6-(2,3-dimethylphenyl)-4-N-ethylpyrimidine-2,4-diamine]
IC50: < 200 nM

Cc1ccc(S(=O)(=O)n2cc(-c3cc(NC(C)C)nc(N)n3)c3ccccc32)cc1 [Example 163, 6-[1-(4-methylbenzenesulfonyl)-1H-indol-3-yl]-4-N-(propan-2-yl)pyrimidine-2,4-diamine]
IC50: < 200 nM

CNc1cc(-c2coc3ccccc23)nc(N)n1 [Example 170, 6-(1-benzofuran-3-yl)-4-N-methylpyrimidine-2,4-diamine]
IC50: < 200 nM

CNc1cc(-c2csc3ccccc23)nc(N)n1 [Example 172, 6-(1-benzothiophen-3-yl)-4-N-methylpyrimidine-2,4-diamine]
IC50: < 200 nM

CC(C)Nc1cc(-c2cccc(Cl)c2Cl)nc(N)n1 [Example 176, 6-(2,3-dichlorophenyl)-4-N-(propan-2-yl)pyrimidine-2,4-diamine]
IC50: < 200 nM

Nc1nc(NCC2CC2)cc(-c2cccc(Cl)c2Cl)n1 [Example 177, 4-N-(cyclopropylmethyl)-6-(2,3-dichlorophenyl)pyrimidine-2,4-diamine]
IC50: < 200 nM

CNc1cc(-c2cc(Br)ccc2OC)nc(N)n1 [Example 183, 6-(5-bromo-2-methoxyphenyl)-4-N-methylpyrimidine-2,4-diamine]
IC50: < 200 nM

CNc1cc(-c2cc(C)ccc2C)nc(N)n1 [Example 184, 6-(2,5-dimethylphenyl)-4-N-methylpyrimidine-2,4-diamine]
IC50: < 200 nM

CNc1cc(-c2cccnc2C(F)(F)F)nc(N)n1 [Example 185, 4-N-methyl-6-[2-(trifluoromethyl)pyridin-3-yl]pyrimidine-2,4-diamine]
IC50: < 200 nM

CNc1cc(-c2ccc(OCc3ccccc3)cc2C)nc(N)n1 [Example 187, 6-[4-(benzyloxy)-2-methylphenyl]-4-N-methylpyrimidine-2,4-diamine]
IC50: < 200 nM

CNc1cc(-c2cc(C)c(OC)cc2C)nc(N)n1 [Example 188, 6-(4-methoxy-2,5-dimethylphenyl)-4-N-methylpyrimidine-2,4-diamine]
IC50: < 200 nM

CNc1cc(-c2cc(C)c(C)cc2C)nc(N)n1 [Example 189, 4-N-methyl-6-(2,4,5-trimethylphenyl)pyrimidine-2,4-diamine]
IC50: < 200 nM

CNc1cc(-c2cc(Cl)ccc2C#N)nc(N)n1 [Example 190, 2-[2-amino-6-(methylamino)pyrimidin-4-yl]-4-chlorobenzonitrile]
IC50: < 200 nM

CNc1cc(-c2cc(Cl)c(Cl)cc2C)nc(N)n1 [Example 191, 6-(4,5-dichloro-2-methylphenyl)-4-N-methylpyrimidine-2,4-diamine]
IC50: < 200 nM

CNc1cc(-c2cc(C)c(F)cc2C)nc(N)n1 [Example 193, 6-(4-fluoro-2,5-dimethylphenyl)-4-N-methylpyrimidine-2,4-diamine]
IC50: < 200 nM

CNc1cc(-c2cc(C(F)(F)F)ccc2C)nc(N)n1 [Example 194, 4-N-methyl-6-[2-methyl-5-(trifluoromethyl)phenyl]pyrimidine-2,4-diamine]
IC50: < 200 nM

CNc1cc(-c2cc(Cl)c(C(F)(F)F)cc2C)nc(N)n1 [Example 195, 6-[5-chloro-2-methyl-4-(trifluoromethyl)phenyl]-4-N-methylpyrimidine-2,4-diamine]
IC50: < 200 nM
